Reference: article PMC5421877, “SOCS3 inhibits the pathological effects of IL-22 in non-melanoma skin tumor-derived keratinocytes” (Oncotarget, 2017)

Key:
healthy keratinocytes = test: CyQUANT proliferation assay, healthy keratinocytes; type: cell-based, human; details: healthy KC; PD98059 20 μM or S3I-201 10 μM, 48 h
Protocol: (§1) Figure 6 IL-22-induced proliferation and migration of healthy and transformed keratinocytes is counteracted by KIR-ESS peptide (A) Healthy KC, CAL27 and CAL33 cultures were plated in 96-well plates in quadruplicate for each condition. After 1 day, cells were pre-treated or not with Ctrl1 or KIR-ESS peptides (40 μM), or S31-201 ([…]) and PD98059 ([…]) chemical inhibitors, and, then, stimulated or not with 50 ng/ml of IL-22. Data relative to 48-h treatment are shown and expressed as the values of fluorescence intensity obtained from untreated and IL-22-treated ± SD. Three independent experiments were performed. *p < 0.01. […] (C) Cell-free area was measured and indicated as residual wound. […]
(§2) SOCS1- and SOCS3 stably transfected keratinocytes or cultured keratinocytes previously transfected with SOCS3 or control siRNA were seeded in 96-well plates (1.5–2.0 × 10^4 cells/well), and, the day after, starved in medium without serum. At 60% confluence, cells were treated with 75 ng/ml of IL-22 for 3 days, stained with 0.5% crystal violet (Bio-Rad, Hercules, CA, USA), and then analyzed in an ELISA reader (model 3550 UV ELISA reader; Bio-Rad). […] After 1-h pre-incubation, cells were treated with IL-22 or left unstimulated, cultured for other 24, 48 and 72 h, and the number of viable cells determined by CyQUANT Cell Proliferation Assay, accordingly to manufacture's protocol. […]

[1] = test system: SCC-cell lines (CAL27 and CAL33); test: CyQUANT proliferation assay, SCC-cell lines; type: cell-based; details: PD98059 20 μM or S3I-201 10 μM, 48 h
Protocol: as §1, §2

CAL33 cells = test: Scratch assay (migration), CAL33; type: cell-based; details: CAL33; 40 μM peptide, PD98059 20 μM or S3I-201 10 μM; IL-22 50 ng/ml, 24 h
Protocol: (§3) Figure 6 IL-22-induced proliferation and migration of healthy and transformed keratinocytes is counteracted by KIR-ESS peptide (A) Healthy KC, CAL27 and CAL33 cultures were plated in 96-well plates in quadruplicate for each condition. After 1 day, cells were pre-treated or not with Ctrl1 or KIR-ESS peptides (40 μM), or S31-201 ([…]) and PD98059 ([…]) chemical inhibitors, and, then, stimulated or not with 50 ng/ml of IL-22. Data relative to 48-h treatment are shown and expressed as the values of fluorescence intensity obtained from untreated and IL-22-treated ± SD. Three independent experiments were performed. *p < 0.01. (B) Scratch assays were carried out on healthy or SCC-lines, pre-incubated with mitomycin C (5 mg/ml), pre-treated with Ctrl1 or KIR-ESS peptides (40 μM), or S31-201 ([…]) or PD98059 ([…]) chemical inhibitors, and, then, stimulated or not with IL-22 for 24 h. Microscopic images were taken immediately after and 24 h after wound induction on confluent cell layers. Initial scratches (0 h) are dashed blank. (C) Cell-free area was measured and indicated as residual wound. Data are reported as healed wound (gray area of bars) vs residual wound (white area of bars) which a value of 100% was given. *p < 0.01.
(§4) Cultured keratinocytes and SCC cell lines were grown at 100% confluence on type IV collagen (20 μg/ml), and then incubated with mitomycin C (5 mg/ml) (Sigma-Aldrich) for 1 h. Cell monolayers were scratched with the tip of a p-200 pipette to create uniform cell-free zones, and, then, pre-treated with appropriate concentrations of SOCS3 mimetic or control peptides, or with 10 μM STAT3 (S3I-201, Santa Cruz) and 20 μM Erk1/2 (PD98059, Calbiochem) inhibitors for 1 h, before treating by 50 ng/ml of IL-22. Microscopy pictures were taken with a digital camera at different time points following IL-22 treatment. The residual gap between migrating keratinocytes was measured with a computer-assisted image analysis system (Axiovision; Zeiss, Oberkochen, Germany), and expressed as percentage of the initial scratched area.

CAL27 cells = test: Scratch assay (migration), CAL27; type: cell-based; details: 24 h
Protocol: as §3, §4

[2] = test system: SOCS3 expression in SCC and BCC skin tumor lines; test: SOCS3 mRNA and protein induction in SCC or BCC tumor cells; type: cell-based; details: SCC (CAL27, CAL33) and BCC (M77015) lines, 3 h mRNA, 6 h protein
Protocol: (§5) Figure 4 SOCS3 and SOCS1 are poorly expressed in the epidermis of NMSC lesions and are not induced in transformed keratinocytes by IL-22 (A) Immunohistochemistry for SOCS3 and SOCS1 (red staining) was performed respectively on frozen or paraffin-embedded sections from biopsies of healthy skin (i), NLS (ii, iii) and LS (iv, v) areas of BCC and SCC, specimens. Psoriatic skin biopsies were also analyzed (vi). Sections were counterstained with Mayer's H&E and were visually evaluated by an pathologist experienced in dermatology. One out of four representative staining is shown. Scale bars, 50 mm. (B) Graphs show SOCS3 and SOCS1 mRNA levels which were detected by real-time PCR analysis in cultured SCC (CAL27 and CAL33) and BCC (M77015) skin tumor lines left untreated or stimulated with IL-22 or IFN-γ for 3 h and normalized for β-actin mRNA expression levels. All data were obtained from three independent experiments. […] SOCS1 was detected by IP using a specific anti-SOCS1 Ab, whereas SOCS3 by WB with an anti-SOCS3 Ab. […] Densitometric intensity (D.I.) of SOCS1 or SOCS3/β-actin was calculated from three independent experiments and numerically expressed as D. I. Ratio. *p < 0.01; **p < 0.05. […] SOCS3 and phospho-Tyr STAT3 levels were detected by WB and normalized to β-actin levels. […]

[3] = test system: SOCS3 expression in healthy keratinocytes; test: SOCS3 mRNA and protein induction in healthy keratinocytes; type: cell-based, human; details: healthy keratinocytes, 3 h mRNA, 6 h protein
Protocol: Figure 1 IL-22 induces SOCS3, which limits STAT3 and Erk1/2 activation (A) Keratinocyte cultures (n = 3) were stimulated with IL-22 or not for 10 min and protein lysates were subjected to immunoprecipitation and WB analyses for basal and phospho-IL-22R1, Tyk2 or Jak1. (B) WB of time-course experiments were performed on keratinocyte cultures (n = 3) to evaluate basal STAT3, Erk1/2 and MEK or phosphor-STAT3 (Tyr705 and Ser 727), phosphor-Erk1/2 and phospho-MEK. Anti-β-actin Ab was used to normalize sample loading. (C) SOCS mRNA and protein levels were detected by real-time PCR or WB analyses in cultured keratinocytes prepared from healthy skin (n = 3) left untreated or stimulated with IL-22 for the indicated time periods and normalized with β-actin values. (D) HaCaT cells stably transfected with myc-tagged SOCS1 (n = 4), SOCS2 (n = 2) and SOCS3 (n = 4) genes or control plasmids (mock, n = 3) were left untreated or stimulated with IL-22 for 15 min or 3 h and lysates subjected to WB with anti-phospho STAT3 (Tyr705), -phospho STAT3 (Ser727), -STAT3, -phospho Erk, -Erk, -c-myc and -β-actin Abs, as indicated. (E) Keratinocyte cultures were transiently transfected with siRNA specific for SOCS3 or control siRNA (NC). After 48-h transfection, cells were stimulated with IL-22 or not for the indicated time periods. In RNA interference experiments, data were obtained by three independent experiments, and SOCS3 depletion was assessed by real-time PCR and WB. […] Data are expressed as ratio of densitometric intensity (D. I.) of phosphorylated and unphosphorylated STAT3 and Erk1/2 proteins. p < 0.05 (*) values were considered significant.
as §5, with “One out of four representative staining is shown. Scale bars, 50 mm.” left out, “levels.” for “levels. All data were obtained from three independent experiments.”

[4] = test system: SOCS1 expression in keratinocytes and SCC/BCC lines; test: SOCS1 mRNA and protein induction; type: cell-based; details: all cell lines, 3 h mRNA, 6 h protein
Protocol: as §5

| Compound | proliferation (effect relative to KIR-ESS) (healthy keratinocytes) | proliferation (effect relative to KIR-ESS) [1] | wound closure, IL-22-treated (CAL33 cells) | wound closure / migration, resting cells (CAL27 cells; CAL27, without IL-22, 40 μM peptide or S31-201 10 μM) | wound closure, IL-22-treated (CAL27 cells; CAL27, 40 μM peptide, PD98059 20 μM or S3I-201 10 μM, IL-22 50 ng/ml) | SOCS3 mRNA and protein expression [2] | SOCS3 mRNA and protein expression [3] | SOCS1 mRNA and protein expression [4] |
| --- | --- | --- | --- | --- | --- | --- | --- | --- |
| Cc1ccc(S(=O)(=O)OCC(=O)Nc2ccc(C(=O)O)c(O)c2)cc1 [S3I-201] | KIR-ESS effect was similar to that observed in all healthy and transformed keratinocyte cultures | KIR-ESS effect was similar to that observed in all healthy and transformed keratinocyte cultures | effect similar to those obtained with the chemical Erk1/2 and STAT3 inhibitors | efficacious in inhibiting migration of CAL27 cells | effect similar to those obtained with the chemical Erk1/2 and STAT3 inhibitors |  |  |  |
| IFN-γ: cytokine stimulus, R&D Systems |  |  |  |  |  | significantly up-regulated by IFN-γ in all cell lines | significantly up-regulated by IFN-γ in all cell lines | significantly up-regulated by IFN-γ in all cell lines both at transcriptional and protein level, with the exception of SOCS1 protein in the BCC lines |
